Experimental data: patent US8563729B2, “Thienopyridone derivatives as AMP-activated protein kinase (AMPK) activators” (Merck Patent GmbH, priority 2008, dated 2013)

Molecular target: T1, AMPK protein (recombinant α1β1γ2) (Homo sapiens, UniProt Q13131+Q9Y478)
T1 construct: made in house; host or cells: E. coli
Experiment: AMPK enzymatic activity (Delfia, AMARA peptide substrate)
Type: biochemical
Details: compound 30 μM vs AMP 30 μM; 125 μM ATP; ratio 90% or higher = direct activator
Description: The following biological test allows the determination of the efficacy of such compounds of formula (I) onto AMPK protein (recombinant α1β1γ2).
Human recombinant AMPK enzyme was expressed in E. Coli and was reactivated in vitro by LKB1 prior to enzyme activity determination.
AMPK enzyme activities were assayed by using A Delfia technology. AMPK enzyme activities were carried out in microtiter plates (50 mM Hepes buffer, pH 7.4 with 125 μM ATP respectively) in the presence of a synthetic peptide substrate (AMARAASAAALARRR, the “AMARA” peptide) and activators in serial dilutions. Reactions were initiated by the addition of AMPK (50-100 ng). Following mixing, the plates were incubated for 30 min at room temperature. Enzyme activity was assayed by using an anti-phosphoserine antibody to measure the quantity of phosphate incorporated into the AMARAA.
N°: Number of the molecule
Activity: Ratio between the % of control (basal activity) of compound of formula (I) at 30 μM and the % of control (basal activity) of AMP (natural substrate) at 30 μM.
Compounds of formula (I) in the table II are considered as direct activator of AMPK if the ratio is 90% or higher.

T1 sequence (Q13131 whole entry): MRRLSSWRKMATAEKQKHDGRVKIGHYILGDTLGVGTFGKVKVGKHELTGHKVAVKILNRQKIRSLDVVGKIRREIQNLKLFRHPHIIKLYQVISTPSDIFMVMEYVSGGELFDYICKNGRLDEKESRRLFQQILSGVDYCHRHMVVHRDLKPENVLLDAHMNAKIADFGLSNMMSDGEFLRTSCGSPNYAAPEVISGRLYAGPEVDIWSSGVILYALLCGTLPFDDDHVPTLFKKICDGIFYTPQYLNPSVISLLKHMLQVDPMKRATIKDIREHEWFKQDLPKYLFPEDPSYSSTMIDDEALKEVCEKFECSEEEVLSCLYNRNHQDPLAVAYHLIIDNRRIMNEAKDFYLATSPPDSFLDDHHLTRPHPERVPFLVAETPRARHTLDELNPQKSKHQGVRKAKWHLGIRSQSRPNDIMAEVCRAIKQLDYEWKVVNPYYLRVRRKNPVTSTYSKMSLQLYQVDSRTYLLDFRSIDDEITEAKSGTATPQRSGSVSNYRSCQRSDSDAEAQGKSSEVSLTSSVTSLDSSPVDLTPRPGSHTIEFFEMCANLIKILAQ
T1 sequence (Q9Y478 whole entry): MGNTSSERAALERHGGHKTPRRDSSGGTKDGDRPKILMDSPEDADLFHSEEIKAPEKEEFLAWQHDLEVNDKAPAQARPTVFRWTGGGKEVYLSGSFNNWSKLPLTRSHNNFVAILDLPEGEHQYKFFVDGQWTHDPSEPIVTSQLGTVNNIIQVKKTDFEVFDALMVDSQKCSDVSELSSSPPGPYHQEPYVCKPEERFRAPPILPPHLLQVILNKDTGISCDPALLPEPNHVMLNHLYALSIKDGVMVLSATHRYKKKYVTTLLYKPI
T1 sequence (Q9UGJ0 whole entry partner): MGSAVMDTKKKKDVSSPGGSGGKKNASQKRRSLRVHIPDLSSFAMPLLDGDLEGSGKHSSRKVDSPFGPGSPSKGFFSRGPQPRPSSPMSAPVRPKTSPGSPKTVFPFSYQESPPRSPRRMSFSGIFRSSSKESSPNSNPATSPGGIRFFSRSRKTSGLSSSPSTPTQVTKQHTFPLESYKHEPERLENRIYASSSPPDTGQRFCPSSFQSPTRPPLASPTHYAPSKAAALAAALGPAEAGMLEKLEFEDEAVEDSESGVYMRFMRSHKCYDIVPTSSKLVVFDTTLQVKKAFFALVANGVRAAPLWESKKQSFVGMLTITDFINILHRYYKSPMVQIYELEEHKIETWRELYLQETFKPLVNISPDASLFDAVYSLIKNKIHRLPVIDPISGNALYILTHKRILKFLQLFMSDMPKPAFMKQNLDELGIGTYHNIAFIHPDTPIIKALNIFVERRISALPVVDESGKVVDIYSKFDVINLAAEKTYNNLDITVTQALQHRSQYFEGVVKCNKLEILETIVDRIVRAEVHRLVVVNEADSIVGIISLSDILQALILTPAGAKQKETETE

| SMILES | activity: Ratio between the % of control (basal activity) of compound of formula (I) at 30 μM and the % of control (basal activity) of AMP at 30 μM [%] |
| --- | --- |
| O=c1[nH]c2scc(-c3ccc(F)cc3)c2c(O)c1-c1ccc(O)cc1 [Compound 45] | 114 |
| O=C(O)c1cccc(-c2c(O)c3c(-c4ccc(F)cc4)c(Cl)sc3[nH]c2=O)c1 [Compound 130] | 117 |
| N=C(N)c1cccc(-c2c(O)c3c(-c4ccccc4)c(Cl)sc3[nH]c2=O)c1 [Compound 142] | 126 |
| O=C(O)c1ccc(-c2c(O)c3c(-c4ccccc4)c(Cl)sc3[nH]c2=O)cc1 [Compound 153] | 111 |
| NC(=NO)c1ccc(-c2c(O)c3c(-c4ccccc4)c(Cl)sc3[nH]c2=O)cc1 [Compound 155] | 95 |
| CNC(=O)c1ccc(-c2c(O)c3c(-c4ccccc4)c(Cl)sc3[nH]c2=O)cc1 [Compound 150] | 130 |
| CS(=O)(=O)c1cccc(-c2c(O)c3c(-c4ccccc4)c(Cl)sc3[nH]c2=O)c1 [Compound 145] | 90 |
| O=c1[nH]c2sc(Cl)c(-c3ccc(O)cc3F)c2c(O)c1-c1ccccc1 [Compound 116] | 120 |
| COc1ccc(-c2csc3[nH]c(=O)c(-c4ccccc4)c(O)c23)cc1 [Compound 32] | 147 |
| O=c1[nH]c2sc(Cl)c(-c3ccc(O)cc3)c2c(O)c1-c1ccc(F)cc1 [Compound 132] | 108 |
| CNC(=O)c1cccc(-c2c(O)c3c(-c4ccccc4)c(Cl)sc3[nH]c2=O)c1 [Compound 141] | 403 |
| O=c1[nH]c2sc(Cl)c(-c3ccccc3)c2c(O)c1-c1ccccc1OCc1ccccc1 [Compound 158] | 110 |
| O=c1[nH]c2sc(Cl)c(-c3ccccc3)c2c(O)c1-c1ccccc1O [Compound 159] | 164 |
| COc1cc(-c2csc3[nH]c(=O)c(-c4ccccc4)c(O)c23)ccc1C [Compound 84] | 158 |
| O=c1[nH]c2scc(-c3ccc(Br)cc3)c2c(O)c1-c1cccnc1 [Compound 28] | 109 |
| COc1ccc(-c2c(Cl)sc3[nH]c(=O)c(-c4ccccc4)c(O)c23)cc1F [Compound 110] | 121 |
| COc1ccc(-c2csc3[nH]c(=O)c(-c4ccccc4)c(O)c23)cc1F [Compound 71] | 131 |
| O=c1[nH]c2scc(-c3cc(O)cc(O)c3)c2c(O)c1-c1ccccc1 [Compound 68] | 96 |

| SMILES | activity: Ratio between the % of control (basal activity) of compound of formula (I) at 30 μM and the % of control (basal activity) of AMP at 30 μM [%] |
| --- | --- |
| COc1cc(C)ccc1-c1c(Cl)sc2[nH]c(=O)c(-c3ccccc3)c(O)c12 [Compound 105] | 206 |
| O=c1[nH]c2scc(-c3ccc(Br)c(O)c3)c2c(O)c1-c1ccccc1 [Compound 74] | 112 |
| COc1cc(-c2csc3[nH]c(=O)c(-c4ccccc4)c(O)c23)ccc1Br [Compound 73] | 94 |
| O=c1[nH]c2scc(-c3ccc(Br)cc3)c2c(O)c1-c1ccncc1 [Compound 29] | 103 |
| Cc1ccc(-c2csc3[nH]c(=O)c(-c4cccc(C#N)c4)c(O)c23)c(O)c1 [Compound 87] | 287 |
| O=c1[nH]c2sc(Cl)c(-c3c(F)cccc3F)c2c(O)c1-c1ccccc1 [Compound 106, 2-chloro-3-(2,6-diflurophenyl)-4-hydroxy-5-phenyl-6,7-dihydro-thieno[2,3-b]pyridin-6-one] | 115 |
| COc1ccc(-c2csc3[nH]c(=O)c(-c4ccccc4)c(O)c23)c(OC)c1 [Compound 60] | 100 |
| NC(=O)c1ccc(-c2c(O)c3c(-c4ccccc4)c(Cl)sc3[nH]c2=O)cc1 [Compound 151] | 134 |
| O=c1[nH]c2sc(Cl)c(-c3cc(Cl)c(O)cc3F)c2c(O)c1-c1ccccc1 [Compound 113] | 95 |
| Cc1ccc(-c2csc3[nH]c(=O)c(-c4ccccc4)c(O)c23)cc1O [Compound 85] | 406 |
| CCCCc1ccc(-c2c(Cl)sc3[nH]c(=O)c(-c4ccccc4)c(O)c23)cc1 [Compound 134] | 93 |
| CS(=O)(=O)c1ccc(-c2c(O)c3c(-c4ccccc4)c(Cl)sc3[nH]c2=O)cc1 [Compound 154] | 131 |
| NC(=NO)c1cccc(-c2c(O)c3c(-c4ccccc4)c(Cl)sc3[nH]c2=O)c1 [Compound 146] | 103 |
| Cc1ccc(-c2c(O)c3c(-c4ccc(F)cc4O)c(Cl)sc3[nH]c2=O)cc1 [Compound 214] | 207 |
| O=c1[nH]c2sc(Cl)c(-c3ccc(F)cc3)c2c(O)c1-c1ccc(F)cc1 [Compound 203] | 251 |
| O=c1[nH]c2scc(-c3ccc(O)cc3)c2c(O)c1-c1ccc(O)cc1 [Compound 41] | 92 |
| COc1ccc(-c2csc3[nH]c(=O)c(-c4ccc(F)cc4)c(O)c23)cc1 [Compound 42] | 110 |

More lines, now with the values ahead:

| activity: Ratio between the % of control (basal activity) of compound of formula (I) at 30 μM and the % of control (basal activity) of AMP at 30 μM [%] | SMILES |
| --- | --- |
| 176 | O=c1[nH]c2scc(-c3cccc(CO)c3)c2c(O)c1-c1ccccc1 [Compound 52] |
| 109 | O=c1[nH]c2scc(-c3ccc(F)cc3F)c2c(O)c1-c1ccccc1 [Compound 64] |
| 131 | O=c1[nH]c2scc(-c3cccc(F)c3)c2c(O)c1-c1ccccc1 [Compound 49] |
| 223 | COc1ccc(-c2csc3[nH]c(=O)c(-c4ccccc4)c(O)c23)c(O)c1 [Compound 81] |
| 135 | O=c1[nH]c2scc(-c3cc(F)ccc3O)c2c(O)c1-c1ccccc1 [Compound 75] |
| 107 | O=c1[nH]c2scc(-c3ccccc3)c2c(O)c1-c1ccccc1 [Compound 16] |
| 107 | O=c1[nH]c2scc(-c3ccccc3F)c2c(O)c1-c1ccccc1 [Compound 56] |
| 146 | O=c1[nH]c2scc(-c3ccccc3O)c2c(O)c1-c1ccccc1 [Compound 55] |
| 160 | O=c1[nH]c2scc(-c3c(F)cccc3F)c2c(O)c1-c1ccccc1 [Compound 78] |
| 103 | Cc1cccc(-c2csc3[nH]c(=O)c(-c4ccccc4)c(O)c23)c1 [Compound 50] |
| 144 | O=c1[nH]c2scc(-c3ccc(F)cc3O)c2c(O)c1-c1ccccc1 [Compound 66] |
| 101 | O=c1[nH]c2scc(-c3ccc(O)cc3F)c2c(O)c1-c1ccccc1 [Compound 62] |
| 119 | O=c1[nH]c2scc(-c3ccc(Br)cc3)c2c(O)c1-c1ccccc1 [Compound 25] |
| 257 | O=c1[nH]c2scc(-c3ccc(Br)cc3O)c2c(O)c1-c1ccccc1 [Compound 77] |
| 103 | O=c1[nH]c2scc(-c3ccccc3Cl)c2c(O)c1-c1ccccc1 [Compound 58] |
